These results are taken from ChEMBL document CHEMBL4613324, “Design, Synthesis, and Evaluation of a Series of Novel Super Long-Acting DPP-4 Inhibitors for the Treatment of Type 2 Diabetes” (J Med Chem, 2020).

The test system of one series is Rhesus monkey. Kind of series: Ex-vivo inhibition of DPP4 in plasma isolated from rhesus monkey treated at 10 mg/kg, ig after 3 weeks by fluorescence based assay relative to control. Type of series: functional. The note with it: Macaca mulatta, po, 504 h.
A further series addresses CYP2D6 (Homo sapiens, UniProt P10635). Kind of series: Stability assessed as recombinant human CYP2D6 mediated compound metabolism by measuring parent compound remaining after 30 mins relative to control. Type of series: ADME. The note with it: read-out: Stability.
For a further series, the target named is Cytochrome P450 2D6 (Homo sapiens, UniProt P10635). Briefly: Inhibition of recombinant human CYP2D6. In kind it is ADME.
Cytochrome P450 2D6, sequence (P10635 whole entry): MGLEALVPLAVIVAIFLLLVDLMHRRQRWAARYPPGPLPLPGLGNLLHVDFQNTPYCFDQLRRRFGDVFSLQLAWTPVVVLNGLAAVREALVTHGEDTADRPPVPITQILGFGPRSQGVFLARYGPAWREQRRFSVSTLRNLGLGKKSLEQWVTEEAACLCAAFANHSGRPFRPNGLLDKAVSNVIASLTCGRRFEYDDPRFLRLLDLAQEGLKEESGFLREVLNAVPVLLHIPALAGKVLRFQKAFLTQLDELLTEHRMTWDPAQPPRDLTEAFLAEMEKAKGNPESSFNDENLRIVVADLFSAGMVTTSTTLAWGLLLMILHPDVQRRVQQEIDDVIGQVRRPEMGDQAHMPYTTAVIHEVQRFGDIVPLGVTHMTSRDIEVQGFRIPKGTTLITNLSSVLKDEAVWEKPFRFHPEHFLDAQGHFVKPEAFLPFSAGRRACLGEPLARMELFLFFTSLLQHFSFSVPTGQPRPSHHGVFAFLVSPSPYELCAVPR
Series [1] concerns the target T1, Cytochrome P450 3A4 (Homo sapiens, UniProt P08684). Kind of series: (§1) Inhibition of recombinant human CYP3A4 using testosterone as substrate. In kind it is ADME.
The nature of series [2]: AUC (0 to t) in ICR mouse at 2 mg/kg, po measured after 0.0833 to 120 hrs by LC-MS-MS analysis. Also noted: time upper 120 hr, time lower 0.083 hr, dose 2 mg/kg, route oral. In kind it is ADME, organism-based. The note with it: in vivo.
The target in another series is CYP2C19 (Homo sapiens, UniProt P33261). Kind of series: Stability assessed as recombinant human CYP2C19 mediated compound metabolism by measuring parent compound remaining after 30 mins relative to control. The note with it: read-out: Stability. Type of series: ADME.
CYP2C19, sequence (P33261 whole entry): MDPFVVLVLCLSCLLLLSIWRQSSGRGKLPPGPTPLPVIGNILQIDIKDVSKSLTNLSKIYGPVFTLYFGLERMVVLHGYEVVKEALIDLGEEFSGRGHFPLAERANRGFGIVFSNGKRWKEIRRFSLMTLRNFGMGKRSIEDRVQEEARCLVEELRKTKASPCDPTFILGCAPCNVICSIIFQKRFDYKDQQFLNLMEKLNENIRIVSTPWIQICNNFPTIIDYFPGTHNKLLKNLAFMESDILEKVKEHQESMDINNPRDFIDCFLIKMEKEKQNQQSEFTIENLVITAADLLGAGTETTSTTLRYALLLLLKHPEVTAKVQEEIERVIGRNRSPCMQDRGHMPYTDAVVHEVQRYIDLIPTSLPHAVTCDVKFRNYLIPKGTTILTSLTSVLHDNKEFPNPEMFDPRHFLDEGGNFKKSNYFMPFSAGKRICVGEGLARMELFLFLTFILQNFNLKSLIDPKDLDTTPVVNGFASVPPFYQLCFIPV
A short description of series [3]: AUC in female Sprague-Dawley rat during 3-month repeated dose toxicology study. In kind it is ADME. To be noted: in vivo.
The next series deals with Cytochrome P450 2E1 (Homo sapiens, UniProt P05181). Briefly: Inhibition of recombinant human CYP2E1. Type of series: ADME.
Cytochrome P450 2E1, sequence (P05181 whole entry): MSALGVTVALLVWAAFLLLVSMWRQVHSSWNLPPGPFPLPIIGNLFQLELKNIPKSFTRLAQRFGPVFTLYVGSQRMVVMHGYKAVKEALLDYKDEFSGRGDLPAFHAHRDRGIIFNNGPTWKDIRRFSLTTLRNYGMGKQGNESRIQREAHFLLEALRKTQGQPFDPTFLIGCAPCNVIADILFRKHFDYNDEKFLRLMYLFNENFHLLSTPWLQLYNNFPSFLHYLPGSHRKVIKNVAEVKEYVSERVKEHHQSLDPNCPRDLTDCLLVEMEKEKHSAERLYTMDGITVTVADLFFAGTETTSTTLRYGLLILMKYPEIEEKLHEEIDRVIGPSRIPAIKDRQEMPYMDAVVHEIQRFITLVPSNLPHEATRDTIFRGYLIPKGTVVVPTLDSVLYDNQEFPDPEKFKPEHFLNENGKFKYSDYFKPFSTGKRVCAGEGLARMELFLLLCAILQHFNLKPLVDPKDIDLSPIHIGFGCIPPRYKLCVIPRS
For series [4], the target named is T1, Cytochrome P450 3A4. Described as §1. Type of series: ADME. The source holds these as a separate data set.
In a further series the target is Cytochrome P450 3A5 (Homo sapiens, UniProt P20815). Kind of series: Inhibition of recombinant human CYP3A5 using testosterone as substrate. Type of series: ADME.
Cytochrome P450 3A5, sequence (P20815 whole entry): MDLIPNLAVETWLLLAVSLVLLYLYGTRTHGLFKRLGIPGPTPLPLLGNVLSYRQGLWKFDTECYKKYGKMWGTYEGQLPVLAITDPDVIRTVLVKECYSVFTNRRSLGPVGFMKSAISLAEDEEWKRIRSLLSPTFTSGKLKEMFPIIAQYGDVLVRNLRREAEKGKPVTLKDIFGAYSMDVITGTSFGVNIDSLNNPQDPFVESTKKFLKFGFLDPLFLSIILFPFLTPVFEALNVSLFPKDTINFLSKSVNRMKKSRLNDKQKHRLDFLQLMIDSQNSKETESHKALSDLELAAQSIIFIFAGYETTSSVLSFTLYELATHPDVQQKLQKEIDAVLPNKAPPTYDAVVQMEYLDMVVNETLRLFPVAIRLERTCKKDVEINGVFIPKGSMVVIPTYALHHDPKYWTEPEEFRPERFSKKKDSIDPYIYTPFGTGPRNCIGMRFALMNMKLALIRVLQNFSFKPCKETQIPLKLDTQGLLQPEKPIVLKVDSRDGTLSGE
In series [5] the target is T2, Cytochrome P450 2B6 (Homo sapiens, UniProt P20813).
T2 sequence (P20813 whole entry): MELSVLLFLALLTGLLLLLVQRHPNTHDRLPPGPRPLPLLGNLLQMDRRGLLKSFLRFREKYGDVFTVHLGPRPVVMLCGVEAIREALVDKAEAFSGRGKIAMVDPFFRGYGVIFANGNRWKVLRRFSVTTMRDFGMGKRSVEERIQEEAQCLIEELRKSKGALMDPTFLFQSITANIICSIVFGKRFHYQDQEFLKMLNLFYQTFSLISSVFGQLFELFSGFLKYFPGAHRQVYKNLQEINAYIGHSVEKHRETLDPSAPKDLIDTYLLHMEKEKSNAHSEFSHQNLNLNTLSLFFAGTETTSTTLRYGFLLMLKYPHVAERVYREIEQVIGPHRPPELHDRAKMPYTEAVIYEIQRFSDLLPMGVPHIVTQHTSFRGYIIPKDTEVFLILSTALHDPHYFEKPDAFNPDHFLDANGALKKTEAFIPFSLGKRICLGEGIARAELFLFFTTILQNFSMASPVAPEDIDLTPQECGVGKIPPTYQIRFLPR
Briefly: (§2) Inhibition of recombinant human CYP2B6. Type of series: ADME.

For series [6], the target named is T2, Cytochrome P450 2B6. The description is as §2. In kind it is ADME. This is another data set of the same source.
In series [7] the target is T3, Cytochrome P450 2A6 (Homo sapiens, UniProt P11509).
T3 sequence (P11509 whole entry): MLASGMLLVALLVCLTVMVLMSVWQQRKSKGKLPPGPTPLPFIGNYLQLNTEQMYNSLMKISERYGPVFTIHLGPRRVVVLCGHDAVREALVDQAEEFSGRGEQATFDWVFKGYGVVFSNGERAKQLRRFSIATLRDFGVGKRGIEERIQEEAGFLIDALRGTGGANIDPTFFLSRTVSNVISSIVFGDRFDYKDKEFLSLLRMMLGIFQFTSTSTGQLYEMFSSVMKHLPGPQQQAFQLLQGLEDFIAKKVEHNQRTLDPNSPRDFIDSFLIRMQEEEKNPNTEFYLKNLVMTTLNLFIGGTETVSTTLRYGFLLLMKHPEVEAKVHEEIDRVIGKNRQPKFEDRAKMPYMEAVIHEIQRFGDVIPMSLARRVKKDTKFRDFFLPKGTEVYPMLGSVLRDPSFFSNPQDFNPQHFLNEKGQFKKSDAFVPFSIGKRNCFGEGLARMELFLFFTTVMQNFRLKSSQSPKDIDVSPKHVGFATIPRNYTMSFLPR
Kind of series: (§3) Inhibition of recombinant human CYP2A6. Type of series: ADME.

The target in series [8] is T3, Cytochrome P450 2A6. Described as §3. Type of series: ADME. The source holds these as a separate data set.

The structures appear in SMILES notation. Where only a bound is given, the exact number is not on record here.

T1 sequence (P08684 whole entry): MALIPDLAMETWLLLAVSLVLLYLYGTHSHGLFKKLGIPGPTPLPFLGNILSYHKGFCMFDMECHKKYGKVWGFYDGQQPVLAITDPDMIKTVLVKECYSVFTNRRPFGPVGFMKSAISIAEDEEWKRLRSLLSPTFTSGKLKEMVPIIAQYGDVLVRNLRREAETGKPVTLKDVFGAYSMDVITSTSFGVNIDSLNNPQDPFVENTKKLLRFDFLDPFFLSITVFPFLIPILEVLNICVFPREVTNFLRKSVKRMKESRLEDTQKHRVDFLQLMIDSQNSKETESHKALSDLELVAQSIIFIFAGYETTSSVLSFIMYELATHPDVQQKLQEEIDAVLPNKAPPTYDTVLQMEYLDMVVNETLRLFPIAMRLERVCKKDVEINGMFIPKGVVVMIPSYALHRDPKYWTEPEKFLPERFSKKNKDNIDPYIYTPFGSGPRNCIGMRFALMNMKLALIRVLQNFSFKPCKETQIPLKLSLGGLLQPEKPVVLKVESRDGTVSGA
CYP2D6, sequence (P10635 whole entry): as the sequence (P10635 whole entry) above

As to `CS(=O)(=O)n1cc2c(n1)CN([C@@H]1C[C@H](N)[C@@H](c3cc(F)ccc3F)O[C@@H]1C(F)(F)F)C2` [COFROGLIPTIN], the inhibition in vivo – broadly, the change of the read-out against control, counted positive when it falls – at 10 mg/kg in the series on Rhesus monkey came to 43.4%. Moreover, the remaining at 0.5 h at CYP2D6 and at CYP2C19 was > 95% each time. For the same compound, the IC50 on Cytochrome P450 2D6, on Cytochrome P450 3A4 [1], on Cytochrome P450 2E1, at Cytochrome P450 3A4 [4], on Cytochrome P450 3A5 and on Cytochrome P450 2B6 [5] was > 100 µM each time. Further, the IC50 at Cytochrome P450 2B6 [6], at Cytochrome P450 2A6 [7] and on Cytochrome P450 2A6 [8] was > 100 µM throughout. Besides, in [2], the AUC(0-t) (in general, the area under the concentration-time curve up to a stated or last time point) is 7.9 µg·h/mL. The AUC (commonly the area under the concentration-time curve, a measure of exposure) in series [3] worked out at 4240 µg·h/mL.
